Experimental data as given in patent US6787315B2, “Methods for identifying ligand binding sites in a biomolecule” (priority 2001, dated 2004).

Key:
Parameters in all cases: species or system E. coli
[1] = system: modified 16S RNA (5IUtetra; 5-iodouridine at position 13 in the UUCG tetraloop); assay: ESI-FT-ICR MS ligand binding to 27-mer 16S RNA modified at the tetraloop
Procedure: (§1) The following examples illustrate preferred embodiments of the present invention using mass spectrometry. Experiments were performed using a 7.0 Tesla Fourier transform ion cyclotron resonance (FT-ICR) mass spectrometer with an electrospray ionization source operating in the negative mode. A −3000 V difference was employed between the spray tip and the inlet capillary to generate the electrospray. Samples were introduced at a flow rate of 1.5 uL/min using a Harvard syringe pump and a 50 uL glass syringe. The desolvation of the electrospray droplets was aided by a flow of countercurrent gas at 1 L/min. Ions were accumulated for 1.0 sec in an intermediate hexapole ion storage region at 1.0×10^−5 mbar. Following transfer to the FT-ICR analysis cell, the image current was measured over a mass range of 500-4000 m/z. Typically, a total of 32 transients containing 512 kbytes were summed prior to Fourier transformation. […]
(§2) An aqueous solution containing 100 mM ammonium acetate buffer (pH 7.0), 33% isopropyl alcohol, gentamicin (2 μM, present in three forms), 16S RNA (2.5 μM) and a modified 16S RNA (2.5 μM) was prepared. […] The peaks were integrated and ion abundances determined. Fractions of 16S+genta and 5IUtetra+genta complexes were determined to be 70.4% and 68.2±1% for the free 16S RNA and 5IUtetraRNA, respectively.

[2] = system: modified 16S RNA (5IU1406; 5-iodouridine at position U1406); assay: ESI-FT-ICR MS ligand binding to 27-mer 16S RNA modified at U1406; conditions: Example 2: gentamicin 2 μM
Procedure: (§3) The following examples illustrate preferred embodiments of the present invention using mass spectrometry. Experiments were performed using a 7.0 Tesla Fourier transform ion cyclotron resonance (FT-ICR) mass spectrometer with an electrospray ionization source operating in the negative mode. A −3000 V difference was employed between the spray tip and the inlet capillary to generate the electrospray. Samples were introduced at a flow rate of 1.5 uL/min using a Harvard syringe pump and a 50 uL glass syringe. The desolvation of the electrospray droplets was aided by a flow of countercurrent gas at 1 L/min. Ions were accumulated for 1.0 sec in an intermediate hexapole ion storage region at 1.0×10^−5 mbar. Following transfer to the FT-ICR analysis cell, the image current was measured over a mass range of 500-4000 m/z. Typically, a total of 32 transients containing 512 kbytes were summed prior to Fourier transformation. The m/z values were calibrated on the signal from the [M-5H^+]^5− charge state of the free RNA at 1726.509.
as §2, with “μM),” for “μM, present in three forms),”, “5IU1406+genta” for “5IUtetra+genta”, “66.8%” for “70.4%”, “28.1±1%” for “68.2±1%”, “5IU1406 RNA,” for “5IUtetraRNA,”

[3] = system: modified 16S RNA (5′-PS-A1492; 3′-phosphorothioate at A1492, C12O6 PEG mass tag); assay: ESI-FT-ICR MS ligand binding to 27-mer 16S RNA modified at A1492
Procedure: as §3
An aqueous solution containing 100 mM ammonium acetate buffer (pH 7.0), 33% isopropyl alcohol, gentamicin (1 μM), 16S RNA (5 μM) and a modified 16S RNA (5.5 μM) was prepared. […] The peaks from the complexes formed from the lowest mass form of gentamicin were integrated and ion abundances determined. Fractions of 16S+genta and 5′-PS-A1492+genta complexes were determined to be 0.121 and 0.118±0.01% for the free 16S RNA and 5′-PS-A1492 RNA, respectively.
An aqueous solution containing 100 mM ammonium acetate buffer (pH 7.0), 33% isopropyl alcohol, ribostamycin (1 μM), 16S RNA (5 μM) and a modified 16S RNA (5.5 μM) was prepared. […] The peaks from the complexes formed between ribostamycin and the RNA were integrated and ion abundances determined. Fractions of 16S+ribost and 5′-PS-A1492+ribost complexes were determined to be 0.101 and 0.082±0.005% for the free 16S RNA and 5′-PS-A1492 RNA, respectively.

[4] = system: modified 16S RNA (5IU1495; 5-iodouridine at position U1495, PEG-6 chain at 5′-hydroxyl); assay: ESI-FT-ICR MS ligand binding to 27-mer 16S RNA modified at U1495; conditions: Example 3: ribostamycin 2.5 μM
Procedure: as §1
An aqueous solution containing 50 mM ammonium acetate buffer (pH 7.0), 33% isopropyl alcohol, ribostamycin (2.5 μM), 16S RNA (2.5 μM) and a modified 16S RNA (2.5 μM) was prepared. […] The peaks were integrated and ion abundances determined. Fractions of 16S+ribost and 5IU1495+ribost complexes were determined to be 67.6% and 29.9±1% for the free 16S RNA and 5IU1495 RNA, respectively.

Row | Molecule | Effect of 5-iodouridine residue in the tetraloop on the abundance of the gentamicin-RNA complex ([1]; Example 1: 5IUtetra versus 16S RNA) | Fraction of 5IUtetra+genta complex ([1]; Example 1: gentamicin 2 μM (three forms), 16S RNA 2.5 μM with 5IUtetra RNA 2.5 μM, 100 mM ammonium acetate pH 7.0, 33% isopropyl alcohol) | Amount of 5IU1406+genta as % of the amount of 16S+genta [2] | Fraction of 5IU1406+genta complex ([2]; 16S RNA 2.5 μM with 5IU1406 RNA 2.5 μM, 100 mM ammonium acetate pH 7.0, 33% isopropyl alcohol) | Amount of 5′-PS-A1492+genta as % of the amount of 16S+genta ([3]; Example 6: gentamicin 1 μM) | Fraction of 5′-PS-A1492+genta complex ([3]; Example 6: gentamicin 1 μM (lowest mass form integrated), 16S RNA 5 μM with 5′-PS-A1492 RNA 5.5 μM, 100 mM ammonium acetate pH 7.0, 33% isopropyl alcohol) | Amount of 5′-PS-A1492+ribost as % of the amount of 16S+ribost ([3]; Example 7: ribostamycin 1 μM) | Amount of 5IU1495+ribost as % of the amount of 16S+ribost [4] | Fraction of 5IU1495+ribost complex ([4]; 16S RNA 2.5 μM with 5IU1495 RNA 2.5 μM, 50 mM ammonium acetate pH 7.0, 33% isopropyl alcohol)
1 | gentamicin | no effect | 68.2±1% | 42% | 28.1±1% | 97% | 0.118±0.01 fraction (0–1) | – | – | –
2 | NC[C@H]1O[C@H](O[C@H]2[C@H](O[C@@H]3O[C@H](CO)[C@@H](O)[C@H]3O)[C@@H](O)[C@H](N)C[C@@H]2N)[C@H](N)[C@@H](O)[C@@H]1O [ribostamycin] | – | – | – | – | – | – | 80% | 44% | 29.9±1%
